Patent US4383113A, “Agricultural sulfonamides” (E. I. Du Pont de Nemours and Company, priority 1981, dated 1983)

Legend:
Design in all cases: key: 0 = no effect, 10 = maximum effect; letter = response symbol
morningglory [1] = assay: Test A pre-emergence; format: in vivo, Ipomoea spp.
Text: (§1) The activity of these compounds was discovered in a number of greenhouse and field tests. The ratings are based on a numerical scale extending from 0=no effect, to 10=maximum effect. The accompanying descriptive symbols have the following meanings:
(§2) Seeds of crabgrass (Digitaria spp.), barnyardgrass (Echinochloa crusgalli), wild oats (Avena fatua), cassia (Cassia tora), morningglory (Ipomoea spp.), cocklebur (Xanthium spp.), sorghum, corn, soybean, rice, wheat and nutsedge tubers (Cyperus rotundus) were planted in a growth medium and treated preemergence with a nonphytotoxic solvent solution of the compounds of Table XII. Other batches of seeds and tubers for all of the foregoing weed and crop plants were planted at the same time as controls. The control plantings were untreated; i.e., neither any compound nor any solvent was applied. At the same time, cotton having five leaves (including cotyledonary ones), bush beans with the third trifoliate leaf expanding, crabgrass with two leaves, barnyardgrass with two leaves, wild oats with two leaves, cassia with three leaves (including cotyledonary ones), morningglory with four leaves (including the cotyledonary ones), cocklebur with four leaves (including the cotyledonary ones), sorghum with four leaves, corn with four leaves, soybean with two cotyledonary leaves, rice with three leaves, wheat with one leaf, and nutsedge with three-five leaves were sprayed with a nonphytotoxic solvent solution of the compounds of Table XII. Other groups of all the same weed and crop plants were sprayed with the same nonphytotoxic solvent so as to provide control plants. Preemergence and postemergence treated plants and controls were maintained in a greenhouse for sixteen days, then all treated plants were compared with their respective controls and rated visually for response to treatment.

cocklebur [2] = assay: Test A pre-emergence; format: in vivo, Xanthium spp.
Text: as §1, §2

cassia [3] = assay: Test A pre-emergence; format: in vivo, Cassia tora
Text: as §1, §2

corn [4] = assay: Test A pre-emergence; format: in vivo
Text: as §1, §2

sorghum [5] = assay: Test A pre-emergence; format: in vivo
Text: as §1, §2

soybean [6] = assay: Test A pre-emergence; format: in vivo
Text: as §1, §2

wheat [7] = assay: Test A pre-emergence; format: in vivo
Text: as §1, §2

wild oats [8] = assay: Test A pre-emergence; format: in vivo, Avena fatua
Text: as §1, §2

bush bean = assay: Test A post-emergence; format: in vivo, bush beans; details: 0.4 kg/ha
morningglory [9] = assay: Test A post-emergence; format: in vivo, Ipomoea spp.; details: 0.4 kg/ha
Text: as §1, §2

cocklebur [10] = assay: Test A post-emergence; format: in vivo, Xanthium spp.; details: 0.4 kg/ha
Text: as §1, §2

cassia [11] = assay: Test A post-emergence; format: in vivo, Cassia tora; details: 0.4 kg/ha
Text: as §1, §2

crabgrass [12] = assay: Test A post-emergence; format: in vivo, Digitaria spp.; details: 0.4 kg/ha
Text: as §1, §2

barnyardgrass [13] = assay: Test A post-emergence; format: in vivo, Echinochloa crusgalli; details: 0.4 kg/ha
Text: as §1, §2

corn [14] = assay: Test A post-emergence; format: in vivo; details: 0.4 kg/ha
Text: as §1, §2

soybean [15] = assay: Test A post-emergence; format: in vivo; details: 0.4 kg/ha
Text: as §1, §2

nutsedge = assay: Test A post-emergence; format: in vivo, Cyperus rotundus; details: 0.4 kg/ha
Text: as §1, §2

wild oats [16] = assay: Test A post-emergence; format: in vivo, Avena fatua; details: 0.4 kg/ha
Text: as §1, §2

barnyardgrass [17] = assay: Test A pre-emergence; format: in vivo, Echinochloa crusgalli
Text: as §1, §2

sorghum [18] = assay: Test A post-emergence; format: in vivo; details: 0.4 kg/ha
Text: as §1, §2

wheat [19] = assay: Test A post-emergence; format: in vivo; details: 0.4 kg/ha
Text: as §1, §2

crabgrass [20] = assay: Test A pre-emergence; format: in vivo, Digitaria spp.; details: 0.4 kg/ha
Text: as §1, §2

SMILES	response rating (morningglory [1]; 0.4 kg/ha)	response rating (cocklebur [2]; 0.4 kg/ha) [G]	response rating (cassia [3]; 0.4 kg/ha)	response rating (corn [4]; 0.4 kg/ha)	response rating (sorghum [5]; 0.4 kg/ha) [H]	response rating (soybean [6]; 0.4 kg/ha) [H]	response rating (wheat [7]; 0.4 kg/ha)	further results
COc1cc(C)nc(NC(=O)NS(=O)(=O)c2ccccc2C(=O)SCc2ccccc2)n1 [drawing 542]	9G	8	9G	9G	9	9	9H	
COc1nc(C)nc(NC(=O)NS(=O)(=O)c2ccccc2C(=O)OC(C)C)n1 [drawing 492]	9G	9		9G		9	5G	response rating (wild oats [8]; 0.4 kg/ha): 9G
CCOCCSc1cc(C)nc(NC(=O)NS(=O)(=O)c2ccccc2C(=O)OC)n1 [drawing 536]	9G			9G	9	9		
Cc1cc(C)nc(NC(=O)NS(=O)(=O)c2ccccc2C(=O)O)n1 [drawing 510]								response rating (corn [4]; 2 kg/ha): 3G
CCCC(OC(=O)c1ccccc1S(=O)(=O)NC(=O)Nc1nc(C)nc(OC)n1)C(C)C (stereo not shown) [drawing 458]								response rating (bush bean): 9C; response rating (morningglory [9]): 10C; response rating (cocklebur [10]): 10C; response rating (cassia [11]): 9C; response rating (crabgrass [12]): 3C; response rating (barnyardgrass [13]): 9C; response rating (corn [14]): 9C; response rating (soybean [15]): 9C
COc1cc(C)nc(NC(=O)NS(=O)(=O)c2ccccc2C(=O)OC(C)CCl)n1 (stereo not shown) [drawing 545]	9G	9	9G	9H		9	9H	
COC(=O)c1ccccc1S(=O)(=O)NC(=O)N(C)c1nc(C)cc(C)n1 [drawing 419]								response rating (cassia [11]): 2C; response rating (nutsedge): 7G; response rating (crabgrass [12]): 7G; response rating (barnyardgrass [13]): 9C; response rating (wild oats [16]): 6C; response rating (soybean [15]): 3C
COc1cc(C)nc(NC(=O)NS(=O)(=O)c2ccccc2C(=O)OCCOc2ccccc2)n1 [drawing 528]	9C	9		9G		9	9H	
COc1cc(C)nc(NC(=O)NS(=O)(=O)c2ccccc2C(=O)OCCCl)n1 [drawing 488]	9C	9	9C	10H	10	9	9H	response rating (barnyardgrass [17]; 0.4 kg/ha): 10H
COc1cc(C)nc(NC(=O)NS(=O)(=O)c2ccccc2C(=O)OC2CCOC2)n1 (stereo not shown) [drawing 446]								response rating (bush bean): 9C; response rating (morningglory [9]): 9C; response rating (barnyardgrass [13]): 9C; response rating (wild oats [16]): 7G; response rating (sorghum [18]): 9C; response rating (soybean [15]): 9C; response rating (wheat [19]): 7C
COCCCOc1cc(C)nc(NC(=O)NS(=O)(=O)c2ccccc2C(=O)OC)n1 [drawing 537]		9	8G	9H	9	9	9H	
CCC(C)OC(=O)c1ccccc1S(=O)(=O)NC(=O)Nc1nc(OC)cc(OC)n1 (stereo not shown) [drawing 423]								response rating (morningglory [9]): 9C; response rating (nutsedge): 7G; response rating (crabgrass [12]): 2A; response rating (barnyardgrass [13]): 9C; response rating (wild oats [16]): 2C; response rating (corn [14]): 9H; response rating (soybean [15]): 9C; response rating (wheat [19]): 1C
COc1cc(C)nc(NC(=O)NS(=O)(=O)c2ccccc2C(=O)NC(C)C)n1 [drawing 463]								response rating (morningglory [9]): 10C; response rating (cocklebur [10]): 9C; response rating (cassia [11]): 9C; response rating (nutsedge): 9C; response rating (crabgrass [12]): 10C; response rating (barnyardgrass [13]): 9C; response rating (wild oats [16]): 9C; response rating (sorghum [18]): 9C; response rating (soybean [15]): 9C
COC(=O)c1ccccc1S(=O)(=O)NC(=O)Nc1nc(C)nc(N(C)C)n1 [drawing 539]	9G	9	8G	9G	9	9	9H	
COc1nc(C)nc(NC(=O)NS(=O)(=O)c2ccccc2C(=O)OC(C)Cc2ccccc2)n1 (stereo not shown) [drawing 524]	9G	9		9H	9	9	9H	response rating (barnyardgrass [17]; 0.4 kg/ha): 9H; response rating (wild oats [8]; 0.4 kg/ha): 9H
COCCc1nc(NC(=O)NS(=O)(=O)c2ccccc2C(=O)OC)nc(OC)n1 [drawing 541]	9G	9		10H	9	9	6G	
COC(=O)c1ccccc1S(=O)(=O)NC(=O)Nc1nnc(C)c(C)n1 [drawing 484]								response rating (morningglory [1]; 2 kg/ha): 9C; response rating (cocklebur [2]; 2 kg/ha): 9G; response rating (cassia [3]; 2 kg/ha): 9C; response rating (barnyardgrass [17]; 2 kg/ha): 9H; response rating (wild oats [8]; 2 kg/ha): 9H; response rating (corn [4]; 2 kg/ha): 9G; response rating (sorghum [5]; 2 kg/ha): 9H; response rating (soybean [6]; 2 kg/ha): 9H; response rating (wheat [7]; 2 kg/ha): 9H
COc1cc(C)nc(NC(=O)NS(=O)(=O)c2ccccc2C(=O)NC(C)C)n1 [drawing 530]	9G	8	9G	9H	9	9	9H	response rating (crabgrass [20]): 9H; response rating (barnyardgrass [17]; 0.4 kg/ha): 9H
COC(=O)c1ccccc1S(=O)(=O)NC(=O)Nc1ncccn1 [drawing 485]								response rating (cocklebur [2]; 2 kg/ha): 9G; response rating (cassia [3]; 2 kg/ha): 9G; response rating (wild oats [8]; 2 kg/ha): 8G; response rating (corn [4]; 2 kg/ha): 9G; response rating (sorghum [5]; 2 kg/ha): 9G; response rating (wheat [7]; 2 kg/ha): 8G
COC(=O)c1ccccc1S(=O)(=O)NC(=O)Nc1nc(OC)cc(OC(C)C(=O)OC)n1 (stereo not shown) [drawing 535]				10H	10	9		
COc1cc(C)nc(NC(=O)NS(=O)(=O)c2ccccc2C(=O)SC2CCCCC2)n1 [drawing 543]	9H	9	9G	9G	9	9	9H	response rating (barnyardgrass [17]; 0.4 kg/ha): 9H
COc1cc(C)nc(NC(=O)NS(=O)(=O)c2ccccc2C(=O)N(C)C)n1 [drawing 532]	9G	9	9G	9H	9	9	9H	response rating (barnyardgrass [17]; 0.4 kg/ha): 9H
COc1nc(C)nc(NC(=O)NS(=O)(=O)c2ccccc2C(=O)OC2CCCC2)n1 [drawing 445]								response rating (bush bean): 8C; response rating (morningglory [9]): 10C; response rating (cocklebur [10]): 9C; response rating (nutsedge): 7G; response rating (crabgrass [12]): 1C; response rating (wild oats [16]): 1C; response rating (sorghum [18]): 8G; response rating (soybean [15]): 9C; response rating (wheat [19]): 1C
